The values that follow come from US20240173332A1, “BENZO[…] TREATING OR PREVENTING RESPIRATORY SYNCYTIAL VIRUS INFECTION” (Pfizer Inc., priority 2021, published 2024).

Series [1] can be described thus: Hepatocyte stability, dog. The settings on record: cryopreserved pooled hepatocytes, 3 μM compound, 60 min, read-out: Liver Hepatocyte Stability t1/2. The format is in vitro ADME. How it is done:
(§1) Compounds were subjected to the following assays to investigate liver microsomal stability and hepatocyte stability.
(§2) Cryopreserved pooled hepatocytes were purchased from a reputable commercial supplier and stored in liquid nitrogen prior to use. Williams E media supplemented with 2 mM L-glutamine and 25 mM HEPES and test compound (final substrate concentration 3 μM; final DMSO concentration 0.25%) are pre-incubated at 37° C. prior to the addition of a suspension of cryopreserved hepatocytes (final cell density 0.5 ×10^6 viable cells/mL in Williams E media supplemented with 2 mM L-glutamine and 25 mM HEPES) to initiate the reaction. The final incubation volume is 500 μL. Two control compounds were included with each species, alongside appropriate vehicle control. The reactions were stopped by transferring 50 μL of incubate to 100 μL acetonitrile containing internal standard at the appropriate time points. Samples were removed at 6 time points (0, 5, 15, 30, 45 and 60 min) over the course of a 60 min experiment. The termination plates were centrifuged at 2500 rpm at 4° C. for 30 min to precipitate the protein.
(§3) Following protein precipitation, the sample supernatants were combined in cassettes of up to 4 compounds and analysed using generic LC-MS/MS conditions. From a plot of In peak area ratio (compound peak area/internal standard peak area) against time, the gradient of the line was determined. Subsequently, half-life (t1/2) and intrinsic clearance (CLint) were calculated.

The subject of the next series is RSV A2. Put plainly: RSV plaque reduction assay in Hep-G2 cells. The note with it: Hep-G2 cells, RSV A2, 2 days, mean of at least two experiments, read-out: RSV A2 Plaque EC50. The format is cell-based, respiratory syncytial virus (RSV). How it is done: Compounds were subjected to RSV plaque reduction assays according to the following protocol. Plaque EC50 and cell toxicity CC50 values are a mean of at least two experiments and figures are rounded to whole units.
Hep-G2 cells (ECACC, 85011430) were passaged in flasks and seeded in 24-well plates in DMEM containing antibiotics and supplemented with 10% FBS. During inoculation and subsequent incubation, cells were cultured in DMEM containing 2% FBS. 100 plaque forming unit/well of RSV (RSV A2 ECACC, 0709161v) was mixed with eight serial dilutions of compound. Subsequently, 100 μL of the virus/compound mixtures was added to confluent Hep-G2 cell monolayers. The cells and virus/compound mixtures were incubated at 37° C. in a humidified 5% CO2 incubator for 2 h prior to removal of the inoculum and addition of 1 mL of overlay (DMEM containing 2% FBS and 0.8% CMC) containing compound dilutions. The cells and were incubated at 37° C. in a humidified 5% CO2 incubator for 2 days.
Cells were washed with PBS before adding 75/25% v/v EtOH/MeOH, for 3 min. Fixative was removed and plates were washed with PBS. A pre-titrated amount of the primary antibody was added in 200 μL PBS/2% milk powder, and plates incubated for 90 min at 37° C. The plates were washed 3 times with PBS/0.05% Tween20 before addition of rabbit anti-goat horse radish peroxidase in 200 μL PBS/2% milk powder, and incubated for 1 h at 37° C. Following three wash steps with PBS/0.05% Tween20, 200 μL ready-to-use TrueBlue was added and plates were incubated at rt for 10-15 min before washing with water. After removal of water, plates were air-dried in the dark. Plates were scanned and analysed using the Immunospot S6 Macro analyser, which is equipped with BioSpot analysis software for counting immunostained plaques (virospots). Plaque counts were used to calculate % infection relative to the mean of the plaque count in the virus control wells for RSV. The EC50 value was calculated as 50% reduction in signal, respectively, by interpolation of inhibition curves fitted with a 4-parameter nonlinear regression with a variable slope in Dotmatics. Plaque EC50 and cell toxicity CC50 values are a mean of at least two experiments and figures are rounded to whole units.
(In general: Plaques are areas of infected cells; plaque reduction assays count them against a control.)

A short description of series [2]: Liver microsomal stability, human. The format is in vitro ADME. The settings on record: 1 μM compound, NADPH; for half-life at 1 μM: pooled liver microsomes, pH 7.4, 0.5 mg/mL protein, read-out: Liver Microsomal Stability t1/2. The procedure:
as §1
(§4) Pooled liver microsomes were purchased from a reputable commercial supplier and stored at −80° C. prior to use. Microsomes (final protein concentration 0.5 mg/mL), 0.1 M phosphate buffer pH 7.4 and test compound (final substrate concentration 1 μM; final DMSO concentration 0.25%) were pre-incubated at 37° C. prior to the addition of NADPH (final concentration 1 mM) to initiate the reaction. The final incubation volume was 50 μL. A control incubation was included for each compound tested where 0.1 M phosphate buffer pH 7.4 was added instead of NADPH (minus NADPH). Two control compounds were included with each species. All incubations were performed singularly for each test compound. Each compound was incubated for 0, 5, 15, 30 and 45 min. The control (minus NADPH) was incubated for 45 min only. The reactions were stopped by transferring incubate into acetonitrile at the appropriate time points, in a 1:3 ratio. The termination plates are centrifuged at 3,000 rpm for 20 min at 4° C. to precipitate the protein. Following protein precipitation, the sample supernatants were combined in cassettes of up to 4 compounds, internal standard added, and samples analysed by LC-MS/MS. From a plot of In peak area ratio (compound peak area/internal standard peak area) against time, the gradient of the line was determined. Subsequently, half-life (t1/2) and intrinsic clearance (CLint) were calculated.
For orientation: Liver microsomes are vesicles of endoplasmic reticulum, rich in cytochrome P450 enzymes.

The next series is described as follows: Cell cytotoxicity CC50. The format is cell-based. The note with it: human, Hep-G2 cells; mean of at least two experiments unless (n = 1).
Series [3] in a line: Liver microsomal stability, dog. The format is in vitro ADME. The settings on record: 1 μM compound, NADPH; for half-life at 1 μM: pooled liver microsomes, pH 7.4, 0.5 mg/mL protein, read-out: Liver Microsomal Stability t1/2. The procedure: as §1, §4
Series [4] can be described thus: Hepatocyte stability, rat. The format is in vitro ADME. The settings on record: cryopreserved pooled hepatocytes, 3 μM compound, 60 min, read-out: Liver Hepatocyte Stability t1/2. How it is done:
as §1, §2, §3

Series [5] can be described thus: Liver microsomal stability, rat. The format is in vitro ADME. The note with it: 1 μM compound, NADPH; for half-life at 1 μM: pooled liver microsomes, pH 7.4, 0.5 mg/mL protein, read-out: Liver Microsomal Stability t1/2. The procedure:
as §1, §4

Series [6] in a line: Hepatocyte stability, human. The format is in vitro ADME. The settings on record: cryopreserved pooled hepatocytes, 3 μM compound, 60 min, read-out: Liver Hepatocyte Stability t1/2. The procedure: as §1, §2, §3
The nature of series [7]: In vivo pharmacokinetics in rats (IV and PO). The note with it: male SD rat; for half-life / Vd / clearance / Cmax / AUC(0-t): Sprague Dawley, plasma; for Vd / clearance / Cmax: study IV 1 mg/kg; for Cmax: route not given; for AUC(0-t): read-out: PO AUClast; for F: PO 10 mg/kg vs IV 1 mg/kg. Also noted: species or system Male rats [Sprague Dawley (SD)]. The procedure:
The pharmacokinetics of compounds were studied in vivo in rats at doses of 1 mg/kg (IV) and 10 mg/kg (PO).
Male rats [Sprague Dawley (SD)] surgically prepared with a jugular vein cannula were treated with experimental compounds via intravenous administration (IV; n=3; 1 mg/kg) or oral administration (PO; n=3; 10 mg/kg). Compounds were formulated as a solution in 40:60 dimethylacetamide:saline (IV administration) and a solution of 10% DMSO, 10% cremaphor in water (80%) (PO administration). […] Serial blood samples were collected via the cannula at 0.02, 0.08, 0.25, 0.5, 1, 2, 4, 6, 8 and 24 h post IV dosing of compound, and at 0.08, 0.25, 0.5, 1, 2, 4, 6, 8 and 24 h post oral dosing of compound, and plasma was prepared by centrifugation and stored immediately at −80° C. Samples were subsequently thawed, prepared for analysis by protein precipitation with acetonitrile, and analysed by tandem LCMS using electrospray ionisation using a matrix-matched calibration curve. PK parameters were calculated from the resulting data.

Another series concerns Hep-G2 cells. Put plainly: Cell cytotoxicity CC50. The note with it: mean of at least two experiments unless (n = 1). The format is cell-based.
The subject of a further series is RSV. The settings on record: Antimicrobial Agents and Chemotherapy, Sept. 2007, 3346-3353; cited from earlier work.
Where [8] appears, read: human respiratory syncytial virus, HepG2, 48 h.
Setting [9] is: IV 1 mg/kg, read-out: IV t1/2 (converted).
[10] abbreviates: PO 10 mg/kg, read-out: PO t1/2 (converted).

Like-named read-outs stand apart in the source and are kept apart here. Where only a bound is given, the exact number is not on record here.

The term EC50 denotes the concentration at which the effect is half-maximal. What is called CC50 is the concentration giving 50% cytotoxicity. Read a low CC50 as greater toxicity to the cells. One may read the Cmax as the highest concentration seen after dosing. On to `O=C(N[C@H]1N=C(c2ccccc2)c2cccc(F)c2NC1=O)c1c(-c2ccc(CO)cc2F)nn2cccnc12` [Example 1, 2-[2-Fluoro-4-(hydroxymethyl)phenyl]-N-[(35)-9-fluoro-2-oxo-5-phenyl-1,3-dihydro-1,4-benzodiazepin-3-yl]pyrazolo[1,5-a]pyrimidine-3-carboxamide], for which the half-life at 3 μM was determined as 2.62 h in series [1], 1.38 h in series [4] and 5.55 h in [6]. Also, the half-maximal effective concentration (EC50) in the series with RSV A2 (setting [8]) was 18 nM. Moreover, the half-life at 1 μM in series [2] was determined as 5.48 h; in series [3] it was 10.6 h; in [5] it was 0.69 h. Moreover, in the series “Cell cytotoxicity CC50”, the CC50 is above 25000 nM. The half-life in series [7] (setting [9]) was 1.5 h; in [7] (setting [10]) it was 3.1 h. This compound also showed a Vd in [7] (PO 10 mg/kg) of 0.75 L/kg. The clearance in series [7] (PO 10 mg/kg) worked out at 11.5 mL/min/kg. The highest level in series [7] (PO 10 mg/kg) (Cmax) was 788 ng/mL. Moreover, the AUC(0-t) in series [7] (PO 10 mg/kg) came out at 3880 ng·h/mL. The same compound showed a F in series [7] of 25.6%.

Consider `CC(C)n1cc(-c2nn3cccnc3c2C(=O)N[C@H]2N=C(c3ccccc3)c3cccc(F)c3NC2=O)cn1` [Example 4, N-[(3S)-9-fluoro-2-oxo-5-phenyl-1,3-dihydro-1,4-benzodiazepin-3-yl]-2-(1-propan-2-ylpyrazol-4-yl)pyrazolo[1,5-a]pyrimidine-3-carboxamide], for which the half-life at 3 μM in [1] worked out at 1.4 h; in series [4], 2.17 h; in series [6], 3.78 h. Further, the half-maximal effective concentration (EC50) with RSV A2 (setting [8]) amounted to 37 nM. Moreover, the half-life at 1 μM was 6.58 h in series [2], 2.62 h in series [3] and 2.63 h in series [5]. In “Cell cytotoxicity CC50”, this compound yielded a CC50 above 25000 nM. Besides, the half-life is 4.4 h in series [7] (setting [9]) and 3.7 h in series [7] (setting [10]). Besides, the Vd in series [7] (PO 10 mg/kg) is 0.49 L/kg. The compound also returned a clearance in [7] (PO 10 mg/kg) of 1.9 mL/min/kg. In series [7] (PO 10 mg/kg), this compound gave a Cmax of 4790 ng/mL. Further, the AUC(0-t) in series [7] (PO 10 mg/kg) was 57100 ng·h/mL. This compound registered a F in series [7] of 54.6%.

For “2-[2-Fluoro-4-(hydroxymethyl)phenyl]-N-[(3S)-2-oxo-5-phenyl-1,3-dihydro-1,4-benzodiazepin-3-yl]pyrazolo[1,5-a]pyrimidine-3-carboxamide [Example 2]”, in the series on RSV A2, the EC50 stood at 40 nM. Besides, the “Liver Microsomal Stability t1/2” value worked out at 1.95 h in series [2] (human liver microsomes, 0.5 mg/mL protein); 0.887 h in series [3] (dog liver microsomes, 0.5 mg/mL protein); 0.957 h in series [5] (rat liver microsomes, 0.5 mg/mL protein). The CC50 with Hep-G2 cells is above 25000 nM.

For `O=C(N[C@H]1N=C(c2ccccc2)c2cccc(F)c2NC1=O)c1c(-c2cccc(CO)c2F)nn2cccnc12` [Example 18, 2-[2-Fluoro-3-(hydroxymethyl)phenyl]-N-[(3S)-9-fluoro-2-oxo-5-phenyl-1,3-dihydro-1,4-benzodiazepin-3-yl]pyrazolo[1,5-a]pyrimidine-3-carboxamide], the half-life at 3 μM in series [1] was above 3 h; in [4], 1.57 h; in [6] it was above 3 h. For the same compound, the 50% effective concentration (EC50) in the series on RSV A2 (setting [8]) stood at 44 nM. The half-life at 1 μM in series [2] was 8.83 h; in series [3], 6.5 h; in [5] it was 0.983 h. The cytotoxic concentration (CC50) in the series “Cell cytotoxicity CC50” was above 25000 nM.

As to `CS(=O)(=O)c1ccc(-c2nn3cccnc3c2C(=O)N[C@H]2N=C(c3ccccc3)c3cccc(F)c3NC2=O)c(F)c1` [Example 7, 2-(2-Fluoro-4-methylsulfonylphenyl)-N-[(3S)-9-fluoro-2-oxo-5-phenyl-1,3-dihydro-1,4-benzodiazepin-3-yl]pyrazolo[1,5-a]pyrimidine-3-carboxamide], in series [1], the half-life at 3 μM is 0.95 h. Besides, in the series on RSV A2 (setting [8]), the EC50 worked out at 9 nM. In addition, the CC50 in “Cell cytotoxicity CC50” is above 25000 nM. In [4], the half-life at 3 μM came out at 85.7 h. In addition, the half-life at 3 μM in series [6] amounted to 6.28 h. The half-life in series [7] (setting [9]) is 1.6 h. Also, in series [7] (setting [10]), the half-life was 2.5 h. In series [7] (PO 10 mg/kg), the Vd was 1.4 L/kg, the clearance is 13.1 mL/min/kg, the maximum concentration (Cmax) was determined as 2340 ng/mL and the AUC(0-t) was 24800 ng·h/mL. Further, the F in series [7] is reported as 188%.

In the case of `O=C(Nc1ccccc1F)N[C@H]1N=C(c2ccccc2)c2ccccc2NC1=O` [RSV604], the anti-RSV activity entry in the series with RSV is listed as “sub-micromolar”.
